What was measured:
[1] = tested on: barnyardgrass; assay: Test A preemergence; type: in vivo, Echinochloa crus-galli
Method in brief: (§1)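 Pre- and postemergence greenhouse screen. Soil: loam + sand. Spray carrier: solvent mixture, non-phytotoxic, with surfactant. Post timing at 1–2 leaves, height 2–10 cm. Readout: visual injury on a 0–100 scale roughly 10 days after application, untreated plants as reference.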

[2] = tested on: large (Lg) crabgrass; assay: Test A preemergence; type: in vivo, Digitaria sanguinalis
Method in brief: as §1

[3] = tested on: pigweed; assay: Test A preemergence; type: in vivo, Amaranthus retroflexus
Method in brief: as §1

[4] = tested on: corn; assay: Test A preemergence; type: in vivo, Zea mays
Method in brief: as §1

[5] = tested on: large (Lg) crabgrass; assay: Test A postemergence; type: in vivo, Digitaria sanguinalis; conditions: 0 to 100 scale where 0 is no effect and 100 is complete control
Method in brief: as §1

[6] = tested on: rice; assay: Test B flooded paddy test; type: in vivo, Oryza sativa; conditions: Oryza sativa; Flood, 250 g ai/ha; 0 to 100 scale where 0 is no effect and 100 is complete control; read-out: Plant response rating, Rice
Method in brief: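 Greenhouse flooded-pot test: compounds dosed into 3 cm standing water over 2-leaf plants, flood held constant. Rated visually after 13–15 days on 0–100 (complete control = 100); a dash marks no test result.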

[7] = tested on: giant foxtail; assay: Test C preemergence; type: in vivo, Setaria faberii; conditions: Setaria faberi, pre-emergence
Method in brief: (§2)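 Sown in loam/sand → sprayed pre-emergence; or grown to 1–4 leaves in peat mix → sprayed post-emergence. Same solvent/surfactant formulation both ways. Greenhouse 13–15 d. Score 0–100 visual.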

[8] = tested on: yellow nutsedge; assay: Test C preemergence; type: in vivo, Cyperus esculentus; conditions: Cyperus, pre-emergence
Method in brief: as §2

[9] = tested on: Italian ryegrass; assay: Test C postemergence; type: in vivo, Lolium multiflorum
Method in brief: as §2

[10] = tested on: large (Lg) crabgrass; assay: Test C postemergence; type: in vivo, Digitaria sanguinalis; conditions: Digitaria sanguinalis, post-emergence
Method in brief: as §2

[11] = tested on: lambsquarters; assay: Test C postemergence; type: in vivo, Chenopodium album
Method in brief: as §2

[12] = tested on: morningglory; assay: Test C postemergence; type: in vivo, Ipomoea coccinea
Method in brief: as §2

[13] = tested on: ragweed; assay: Test C postemergence; type: in vivo, Ambrosia elatior
Method in brief: as §2

[14] = tested on: oilseed rape; assay: Test C postemergence; type: in vivo, Brassica napus
Method in brief: as §2

[15] = tested on: wild oat; assay: Test C postemergence; type: in vivo, Avena fatua
Method in brief: as §2

[16] = 31 g ai/ha, postemergence, visual rating, scale 0 to 100 (0 no effect, 100 complete control), 13 to 15 days

## FC(F)c1cccc(Oc2ncc(Cl)cn2)c1-n1cc(Br)cn1 [Compound 194, 2-[2-(4-bromo-1H-pyrazol-1-yl)-3-(difluoromethyl)phenoxy]-5-chloropyrimidine]
[1]; 125 g ai/ha
  Barnyardgrass plant response rating (0 to 100 scale, 0 is no effect, 100 is complete control): 80
[1]; Echinochloa crus-galli, pre-emergence, 240 h, 500 g ai/ha, 0 to 100 scale where 0 is no effect and 100 is complete control, read-out: Barnyardgrass plant response rating
  pest or weed control at 500 g/ha: 100%
[2]; 125 g ai/ha
  Crabgrass, Large plant response rating (0 to 100 scale): 100
[2]; Digitaria sanguinalis, pre-emergence, 240 h, 500 g ai/ha, 0 to 100 scale where 0 is no effect and 100 is complete control, read-out: Crabgrass, Large plant response rating
  pest or weed control at 500 g/ha: 100%
[3]; 125 g ai/ha
  Pigweed plant response rating (0 to 100 scale): 100
[3]; Amaranthus retroflexus, pre-emergence, 240 h, 500 g ai/ha, 0 to 100 scale where 0 is no effect and 100 is complete control, read-out: Pigweed plant response rating
  pest or weed control at 500 g/ha: 100%
[4]; 125 g ai/ha
  Corn plant response rating (0 to 100 scale): 30
[4]; Zea mays, pre-emergence, 240 h, 500 g ai/ha, 0 to 100 scale where 0 is no effect and 100 is complete control, read-out: Corn plant response rating
  plant injury at 500 g/ha: 50%
[5]; 125 g ai/ha
  Crabgrass, Large plant response rating: 90
[5]; Digitaria sanguinalis, post-emergence, 240 h, 500 g ai/ha, read-out: Plant response rating, Crabgrass, Large
  pest or weed control at 500 g/ha: 100%
[6]
  plant injury at 250 g/ha: 0%
[7]; 125 g ai/ha, preemergence, scale 0 (no effect) to 100 (complete control), read-out: Foxtail, Giant plant response rating
  pest or weed control at 125 g/ha: 100%
[7]; 250 g ai/ha, preemergence, scale 0 (no effect) to 100 (complete control), read-out: Foxtail, Giant plant response rating
  pest or weed control at 250 g/ha: 100%
[7]; Preemergence, 62 g ai/ha, scale 0 to 100, 0 no effect, 100 complete control, read-out: Plant response rating, Foxtail, Giant
  pest or weed control at 62 g/ha: 90%
[8]; 125 g ai/ha, preemergence, scale 0 (no effect) to 100 (complete control), read-out: Nutsedge, Yellow plant response rating
  pest or weed control at 125 g/ha: 0%
[8]; 250 g ai/ha, preemergence, scale 0 (no effect) to 100 (complete control), read-out: Nutsedge, Yellow plant response rating
  pest or weed control at 250 g/ha: 25%
[8]; Preemergence, 62 g ai/ha, scale 0 to 100, 0 no effect, 100 complete control, read-out: Plant response rating, Nutsedge, Yellow
  pest or weed control at 62 g/ha: 0%
[9]; [16]
  Ryegrass, Italian plant response rating: 0
[9]; Lolium multiflorum, post-emergence, 125 g ai/ha, postemergence, visual rating, scale 0 to 100 (0 no effect, 100 complete control), read-out: Plant response rating, Ryegrass, Italian
  pest or weed control at 125 g/ha: 0%
[9]; Lolium multiflorum, post-emergence, 250 g ai/ha, postemergence, read-out: Plant response rating (0 to 100), Ryegrass, Italian
  pest or weed control at 250 g/ha: 15%
[9]; Lolium multiflorum, post-emergence, Postemergence, 62 g ai/ha, scale 0 to 100 (0 no effect, 100 complete control), 13 to 15 days, read-out: Plant response rating, Ryegrass, Italian
  pest or weed control at 62 g/ha: 0%
[10]; 31 g ai/ha, postemergence, visual rating, scale 0 to 100 (0 no effect, 100 complete control), 13 to 15 days, read-out: Crabgrass, Large plant response rating
  pest or weed control at 31 g/ha: 10%
[10]; 125 g ai/ha, postemergence, visual rating, scale 0 to 100 (0 no effect, 100 complete control), read-out: Plant response rating, Crabgrass, Large
  pest or weed control at 125 g/ha: 10%
[10]; 250 g ai/ha, postemergence, read-out: Plant response rating (0 to 100), Crabgrass, Large
  pest or weed control at 250 g/ha: 50%
[10]; Postemergence, 62 g ai/ha, scale 0 to 100 (0 no effect, 100 complete control), 13 to 15 days, read-out: Plant response rating, Crabgrass, Large
  pest or weed control at 62 g/ha: 10%
[11]; [16]
  Lambsquarters plant response rating: 60
[11]; Chenopodium album, post-emergence, 125 g ai/ha, postemergence, visual rating, scale 0 to 100 (0 no effect, 100 complete control), read-out: Plant response rating, Lambsquarters
  pest or weed control at 125 g/ha: 90%
[11]; Chenopodium album, post-emergence, 250 g ai/ha, postemergence, read-out: Plant response rating (0 to 100), Lambsquarters
  pest or weed control at 250 g/ha: 98%
[11]; Chenopodium album, post-emergence, Postemergence, 62 g ai/ha, scale 0 to 100 (0 no effect, 100 complete control), 13 to 15 days, read-out: Plant response rating, Lambsquarters
  pest or weed control at 62 g/ha: 80%
[12]; [16]
  Morningglory plant response rating: 50
[12]; Ipomoea, post-emergence, 125 g ai/ha, postemergence, visual rating, scale 0 to 100 (0 no effect, 100 complete control), read-out: Plant response rating, Morningglory
  pest or weed control at 125 g/ha: 80%
[12]; Ipomoea, post-emergence, 250 g ai/ha, postemergence, read-out: Plant response rating (0 to 100), Morningglory
  pest or weed control at 250 g/ha: 95%
[12]; Ipomoea, post-emergence, Postemergence, 62 g ai/ha, scale 0 to 100 (0 no effect, 100 complete control), 13 to 15 days, read-out: Plant response rating, Morningglory
  pest or weed control at 62 g/ha: 80%
[13]; [16]
  Ragweed plant response rating: 15
[13]; Ambrosia artemisiifolia, post-emergence, 125 g ai/ha, postemergence, visual rating, scale 0 to 100 (0 no effect, 100 complete control), read-out: Plant response rating, Ragweed
  pest or weed control at 125 g/ha: 50%
[13]; Ambrosia artemisiifolia, post-emergence, 250 g ai/ha, postemergence, read-out: Plant response rating (0 to 100), Ragweed
  pest or weed control at 250 g/ha: 50%
[13]; Ambrosia artemisiifolia, post-emergence, Postemergence, 62 g ai/ha, scale 0 to 100 (0 no effect, 100 complete control), 13 to 15 days, read-out: Plant response rating, Ragweed
  pest or weed control at 62 g/ha: 25%
[14]; [16]
  Oilseed Rape plant response rating: 30
[14]; Brassica napus, post-emergence, 125 g ai/ha, postemergence, visual rating, scale 0 to 100 (0 no effect, 100 complete control), read-out: Plant response rating, Oilseed Rape
  plant injury at 125 g/ha: 85%
[14]; Brassica napus, post-emergence, 250 g ai/ha, postemergence, read-out: Plant response rating (0 to 100), Oilseed Rape
  plant injury at 250 g/ha: 90%
[14]; Brassica napus, post-emergence, Postemergence, 62 g ai/ha, scale 0 to 100 (0 no effect, 100 complete control), 13 to 15 days, read-out: Plant response rating, Oilseed Rape
  plant injury at 62 g/ha: 40%
[15]; [16]
  Oat, Wild plant response rating: 5
[15]; Avena fatua, post-emergence, 125 g ai/ha, postemergence, visual rating, scale 0 to 100 (0 no effect, 100 complete control), read-out: Plant response rating, Oat, Wild
  pest or weed control at 125 g/ha: 40%
[15]; Avena fatua, post-emergence, 250 g ai/ha, postemergence, read-out: Plant response rating (0 to 100), Oat, Wild
  pest or weed control at 250 g/ha: 45%
[15]; Avena fatua, post-emergence, Postemergence, 62 g ai/ha, scale 0 to 100 (0 no effect, 100 complete control), 13 to 15 days, read-out: Plant response rating, Oat, Wild
  pest or weed control at 62 g/ha: 15%

Reference: US9695155B2, “Herbicidal substituted pyrimidinyloxy benzene compounds” (E. I. DU PONT DE NEMOURS AND COMPANY, priority 2013, dated 2017)
